{"source": "patent US7960339B2", "about": "“Antimicrobial peptides” (Österreichische Akademie der Wissenschaften, priority 2006, dated 2011)", "note": "Peptide text beside a SMILES is read from it. * marks the point of attachment. Dicyclohexylacetyl = O=C(C(C1CCCCC1)C1CCCCC1)*; Octanoyl = CCCCCCCC(=O)*; X1 = CCCCC(CC)C(=O)*", "data": [{"test_system": "C. neoformans ATCC 32045", "type": "cell-based", "details": "ATCC 32045, 72 h", "protocol": "C. neoformans ATCC 32045 cultures were maintained on yeast medium (YM; Difco Laboratories, Detroit, Mich.) agar plates at 4° C. Prior to the assay, the cultures were grown on agar plates and incubated for 72 hrs at 26° C. Two colonies of these newly grown fungal cultures were then inoculated in 5 ml of 2×YM broth, vortexed, and diluted 10-fold in 2×YM broth, for an approximate final assay concentration of 1×105 to 5×10^5 CFU/ml. In 96-well tissue culture plates, fungal suspensions in 2×YM broth were added to the peptides dispensed at concentrations ranging from 1 mg/ml to 1 μg/ml derived from serial twofold dilutions in sterile water. The plates were then incubated for 72 hrs at 26° C. The relative percent growth of the fungi found for each test sample was determined by the optical density at 620 nm (OD620) by using a Titertek Multiskan Plus apparatus. […] The IC50 were calculated by using a sigmoidal curve-fitting software program (Graphpad Prism; ISI Software, San Diego, Calif.).", "units": {"average IC50": "µg/mL", "average MIC": "µg/mL"}, "values": [{"smiles": "CCCCCCCC(=O)N[C@@H](CCCNC(=N)N)C(=O)N[C@@H](Cc1c[nH]c2ccccc12)C(=O)N[C@@H](CCCCN)C(=O)N[C@@H](CCCNC(=N)N)C(=O)N[C@H](C(=O)N[C@@H](CC(N)=O)C(=O)N[C@@H](CCCNC(=N)N)C(=O)N[C@@H](CCC(N)=O)C(=O)N[C@@H](Cc1c[nH]c2ccccc12)C(=O)N[C@@H](Cc1ccccc1)C(N)=O)[C@@H](C)CC", "note": "[VS1-45, octanoyl RWKRINRQWF-NH2] (Octanoyl-RWKRINRQWF-NH2)", "average IC50": 2, "average MIC": 4}, {"smiles": "CC[C@H](C)[C@H](NC(=O)[C@H](CCCNC(=N)N)NC(=O)[C@H](CCCNC(=N)N)NC(=O)[C@H](Cc1c[nH]c2ccccc12)NC(=O)[C@@H]1CCCN1)C(=O)N[C@@H](CCCNC(=N)N)C(=O)N[C@@H](CCCNC(=N)N)C(N)=O", "note": "[VS1-35, PWRRIRR-NH2] (H-PWRRIRR-NH2; N-terminus assumed)", "average IC50": 12, "average MIC": 32}, {"smiles": "CCCCC(CC)C(=O)N[C@@H](Cc1ccccc1)C(=O)N[C@@H](Cc1c[nH]c2ccccc12)C(=O)N[C@@H](CCCNC(=N)N)C(=O)N[C@H](C(=O)N[C@@H](CCCNC(=N)N)C(=O)N[C@H](C(=O)N[C@@H](CCCNC(=N)N)C(=O)N[C@@H](CCCNC(=N)N)C(N)=O)[C@@H](C)CC)[C@@H](C)CC", "note": "(some centres unmarked) [VS1-56, 2-ethylhexanoyl FWRIRIRR-NH2] (X1-FWRIRIRR-NH2)", "average IC50": 3, "average MIC": 16}, {"smiles": "CC[C@H](C)[C@H](NC(=O)[C@H](CCCNC(=N)N)NC(=O)[C@@H](NC(=O)[C@H](CCCNC(=N)N)NC(=O)[C@H](CCCNC(=N)N)NC(=O)[C@H](CCCNC(=N)N)NC(=O)[C@H](Cc1c[nH]c2ccccc12)NC(=O)[C@H](Cc1ccccc1)NC(=O)[C@@H]1CCCN1)[C@@H](C)CC)C(=O)N[C@@H](CCCNC(=N)N)C(=O)N[C@@H](CCCNC(=N)N)C(N)=O", "note": "[VS1-37, PFWRRRIRIRR-NH2] (H-PFWRRRIRIRR-NH2; N-terminus assumed)", "average IC50": 9, "average MIC": 32}, {"smiles": "CC[C@H](C)[C@H](NC(=O)[C@H](CC(N)=O)NC(=O)[C@H](CCCNC(=N)N)NC(=O)[C@H](CCC(N)=O)NC(=O)[C@H](Cc1c[nH]c2ccccc12)NC(=O)[C@H](Cc1ccccc1)NC(=O)C(C1CCCCC1)C1CCCCC1)C(=O)N[C@@H](CCCNC(=N)N)C(=O)N[C@@H](CCCCN)C(=O)N[C@@H](Cc1c[nH]c2ccccc12)C(=O)N[C@@H](CCCNC(=N)N)C(N)=O", "note": "[VS1-44, dicyclohexylacetyl FWQRNIRKWR-NH2] (Dicyclohexylacetyl-FWQRNIRKWR-NH2)", "average IC50": 4, "average MIC": 16}, {"smiles": "CCCCC(CC)C(=O)N[C@@H](Cc1ccccc1)C(=O)N[C@@H](Cc1c[nH]c2ccccc12)C(=O)N[C@@H](CCCNC(=N)N)C(=O)N[C@@H](CCCNC(=N)N)C(=O)N[C@@H](Cc1ccccc1)C(=O)N[C@@H](Cc1c[nH]c2ccccc12)C(=O)N[C@@H](CCCNC(=N)N)C(=O)N[C@@H](CCCNC(=N)N)C(N)=O", "note": "(some centres unmarked) [VS1-61, 2-ethylhexanoyl FWRRFWRR-NH2] (X1-FWRRFWRR-NH2)", "average IC50": 6, "average MIC": 16}, {"smiles": "CC[C@H](C)[C@H](NC(=O)[C@H](CCCNC(=N)N)NC(=O)[C@H](CCCCN)NC(=O)[C@H](Cc1c[nH]c2ccccc12)NC(=O)[C@@H](N)CCCNC(=N)N)C(=O)N[C@@H](CC(N)=O)C(=O)N[C@@H](CCCNC(=N)N)C(=O)N[C@@H](CCC(N)=O)C(=O)N[C@@H](Cc1c[nH]c2ccccc12)C(=O)N[C@@H](Cc1ccccc1)C(N)=O", "note": "[VS1-16, RWKRINRQWF-NH2] (H-RWKRINRQWF-NH2; N-terminus assumed)", "average IC50": 13, "average MIC": 32}, {"smiles": "CC[C@H](C)[C@H](NC(=O)[C@H](CCCNC(=N)N)NC(=O)[C@H](CCCNC(=N)N)NC(=O)[C@H](CCC(N)=O)NC(=O)[C@H](Cc1c[nH]c2ccccc12)NC(=O)[C@@H](N)Cc1ccccc1)C(=O)N[C@@H](CCCNC(=N)N)C(=O)N[C@@H](CCCCN)C(=O)N[C@@H](Cc1c[nH]c2ccccc12)C(=O)N[C@@H](CCCNC(=N)N)C(N)=O", "note": "[VS1-17, FWQRRIRKWR-NH2] (H-FWQRRIRKWR-NH2; N-terminus assumed)", "average IC50": 5, "average MIC": 32}, {"smiles": "CC[C@H](C)[C@H](NC(=O)[C@H](CCCNC(=N)N)NC(=O)[C@@H](NC(=O)[C@H](CCCNC(=N)N)NC(=O)[C@H](Cc1c[nH]c2ccccc12)NC(=O)[C@H](Cc1ccccc1)NC(=O)[C@@H]1CCCN1C(=O)C(C1CCCCC1)C1CCCCC1)[C@@H](C)CC)C(=O)N[C@@H](CCCNC(=N)N)C(=O)N[C@@H](CCCNC(=N)N)C(N)=O", "note": "[VS1-54, dicyclohexylacetyl PFWRIRIRR-NH2] (Dicyclohexylacetyl-PFWRIRIRR-NH2)", "average IC50": 3, "average MIC": 8}, {"smiles": "CC[C@H](C)[C@H](NC(=O)[C@H](CC(N)=O)NC(=O)[C@H](CCCNC(=N)N)NC(=O)[C@H](CCC(N)=O)NC(=O)[C@H](Cc1c[nH]c2ccccc12)NC(=O)[C@H](Cc1ccccc1)NC(=O)[C@@H]1CCCN1)C(=O)N[C@@H](CCCNC(=N)N)C(=O)N[C@@H](CCCCN)C(=O)N[C@@H](Cc1c[nH]c2ccccc12)C(=O)N[C@@H](CCCNC(=N)N)C(N)=O", "note": "[VS1-19, PFWQRNIRKWR-NH2] (H-PFWQRNIRKWR-NH2; N-terminus assumed)", "average IC50": 3, "average MIC": 8}, {"smiles": "CC[C@H](C)[C@H](NC(=O)[C@H](CCCCN)NC(=O)[C@H](CCCNC(=N)N)NC(=O)[C@H](CCCNC(=N)N)NC(=O)[C@H](Cc1c[nH]c2ccccc12)NC(=O)[C@@H]1CCCN1)C(=O)N[C@@H](CCCNC(=N)N)C(=O)N[C@@H](CCCNC(=N)N)C(N)=O", "note": "[VS1-36, PWRRKIRR-NH2] (H-PWRRKIRR-NH2; N-terminus assumed)", "average IC50": 11, "average MIC": 62}, {"smiles": "CC[C@H](C)[C@H](NC(=O)[C@H](CC(N)=O)NC(=O)[C@H](CCCNC(=N)N)NC(=O)[C@H](Cc1c[nH]c2ccccc12)NC(=O)[C@@H](N)Cc1ccccc1)C(=O)N[C@@H](CCCNC(=N)N)C(=O)N[C@@H](CCCCN)C(=O)N[C@@H](Cc1c[nH]c2ccccc12)C(=O)N[C@@H](CCCNC(=N)N)C(N)=O", "note": "[VS1-20, FWRNIRKWR-NH2] (H-FWRNIRKWR-NH2; N-terminus assumed)", "average IC50": 4, "average MIC": 16}, {"smiles": "CC[C@H](C)[C@H](NC(=O)[C@H](CCCNC(=N)N)NC(=O)[C@@H](NC(=O)[C@H](CC(N)=O)NC(=O)[C@H](CCCNC(=N)N)NC(=O)[C@H](CCC(N)=O)NC(=O)[C@H](Cc1c[nH]c2ccccc12)NC(=O)[C@@H](N)Cc1ccccc1)[C@@H](C)CC)C(=O)N[C@@H](CCCNC(=N)N)C(=O)N[C@@H](CCCNC(=N)N)C(N)=O", "note": "[VS1-13, FWQRNIRIRR-NH2] (H-FWQRNIRIRR-NH2; N-terminus assumed)", "average IC50": 8, "average MIC": 32}, {"smiles": "CC[C@H](C)[C@H](NC(=O)[C@H](CCCNC(=N)N)NC(=O)[C@@H](NC(=O)[C@H](CCCNC(=N)N)NC(=O)[C@H](Cc1c[nH]c2ccccc12)NC(=O)[C@@H]1CCCN1)[C@@H](C)CC)C(=O)N[C@@H](CCCNC(=N)N)C(=O)N[C@@H](CCCNC(=N)N)C(N)=O", "note": "[VS1-34, PWRIRIRR-NH2] (H-PWRIRIRR-NH2; N-terminus assumed)", "average IC50": 2, "average MIC": 8}, {"smiles": "N=C(N)NCCC[C@H](NC(=O)[C@H](CCCNC(=N)N)NC(=O)[C@H](Cc1c[nH]c2ccccc12)NC(=O)[C@H](CCCNC(=N)N)NC(=O)[C@H](CCCNC(=N)N)NC(=O)[C@H](CCCNC(=N)N)NC(=O)[C@H](Cc1c[nH]c2ccccc12)NC(=O)[C@H](Cc1ccccc1)NC(=O)[C@@H]1CCCN1)C(N)=O", "note": "[VS1-33, PFWRRRWRR-NH2] (H-PFWRRRWRR-NH2; N-terminus assumed)", "average IC50": 9, "average MIC": 32}, {"smiles": "CC[C@H](C)[C@H](NC(=O)[C@H](CCCNC(=N)N)NC(=O)[C@H](CCC(N)=O)NC(=O)[C@H](CCCNC(=N)N)NC(=O)[C@H](Cc1c[nH]c2ccccc12)NC(=O)[C@H](Cc1ccccc1)NC(=O)[C@@H]1CCCN1)C(=O)N[C@@H](CCCNC(=N)N)C(=O)N[C@@H](CCCNC(=N)N)C(N)=O", "note": "[VS1-25, PFWRQRIRR-NH2] (H-PFWRQRIRR-NH2; N-terminus assumed)", "average IC50": 6, "average MIC": 32}, {"smiles": "N=C(N)NCCC[C@H](NC(=O)[C@H](CCCNC(=N)N)NC(=O)[C@H](Cc1c[nH]c2ccccc12)NC(=O)[C@H](Cc1ccccc1)NC(=O)[C@H](CCCNC(=N)N)NC(=O)[C@H](CCCNC(=N)N)NC(=O)[C@H](Cc1c[nH]c2ccccc12)NC(=O)[C@H](Cc1ccccc1)NC(=O)C(C1CCCCC1)C1CCCCC1)C(N)=O", "note": "[VS1-64, dicyclohexylacetyl FWRRFWRR-NH2] (Dicyclohexylacetyl-FWRRFWRR-NH2)", "average IC50": 6, "average MIC": 32}, {"smiles": "CC(C)C[C@H](NC(=O)[C@H](CCCNC(=N)N)NC(=O)[C@H](CCCCN)NC(=O)[C@H](CCCNC(=N)N)NC(=O)[C@H](Cc1c[nH]c2ccccc12)NC(=O)[C@H](Cc1ccccc1)NC(=O)[C@@H]1CCCN1)C(=O)N[C@@H](CCCNC(=N)N)C(=O)N[C@@H](CCCNC(=N)N)C(N)=O", "note": "[VS1-29, PFWRKRLRR-NH2] (H-PFWRKRLRR-NH2; N-terminus assumed)", "average IC50": 9, "average MIC": 32}, {"smiles": "CC(C)C[C@H](NC(=O)[C@H](CCCCN)NC(=O)[C@H](CCCCN)NC(=O)[C@H](CCCNC(=N)N)NC(=O)[C@H](Cc1c[nH]c2ccccc12)NC(=O)[C@H](Cc1ccccc1)NC(=O)[C@@H]1CCCN1)C(=O)N[C@@H](CCCCN)C(=O)N[C@@H](CCCNC(=N)N)C(N)=O", "note": "[VS1-30, PFWRKKLKR-NH2] (H-PFWRKKLKR-NH2; N-terminus assumed)", "average IC50": 10, "average MIC": 32}]}]}
